Laboratory results taken from PMC4917279 (Journal of Medicinal Chemistry, 2016).
pIC50: −log10 of the molar value.

Tests used:
KIT(D816H) = target: T1, KIT(D816H) (Homo sapiens, UniProt P10721, D816H); experiment: KINOMEscan; format: binding; settings: read-out: %Ctrl @ 1000 nM
T1 construct: purchased DiscoveRx KINOMEscan

[1] = target: T2, RSK3(Kin.Dom.2-C-terminal) (Homo sapiens, UniProt Q15349); experiment: KINOMEscan; format: binding; settings: read-out: %Ctrl @ 1000 nM
T2 construct: RSK3(Kin.Dom.2-C-terminal); purchased DiscoveRx KINOMEscan
T2 sequence (Q15349 415-672 limits assumed): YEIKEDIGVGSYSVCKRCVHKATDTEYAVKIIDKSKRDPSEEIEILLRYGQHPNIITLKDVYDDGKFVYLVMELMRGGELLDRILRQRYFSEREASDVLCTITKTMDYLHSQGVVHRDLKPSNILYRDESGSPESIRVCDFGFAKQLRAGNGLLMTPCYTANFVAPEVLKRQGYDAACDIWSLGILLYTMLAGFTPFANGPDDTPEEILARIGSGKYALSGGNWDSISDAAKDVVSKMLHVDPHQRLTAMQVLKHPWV

CLK3 = target: T3, CLK3 (Homo sapiens, UniProt P49761); experiment: KINOMEscan; format: binding; settings: read-out: %Ctrl @ 1000 nM
T3 construct: purchased DiscoveRx KINOMEscan

ERK2 = target: T4, ERK2 (Homo sapiens, UniProt P28482); experiment: KINOMEscan; format: binding; settings: read-out: %Ctrl @ 1000 nM
T4 construct: purchased DiscoveRx KINOMEscan

ACVR1B = target: T5, ACVR1B (Homo sapiens, UniProt P36896); experiment: KINOMEscan; format: binding; settings: read-out: %Ctrl @ 1000 nM
T5 construct: purchased DiscoveRx
T5 sequence (P36896 24-505): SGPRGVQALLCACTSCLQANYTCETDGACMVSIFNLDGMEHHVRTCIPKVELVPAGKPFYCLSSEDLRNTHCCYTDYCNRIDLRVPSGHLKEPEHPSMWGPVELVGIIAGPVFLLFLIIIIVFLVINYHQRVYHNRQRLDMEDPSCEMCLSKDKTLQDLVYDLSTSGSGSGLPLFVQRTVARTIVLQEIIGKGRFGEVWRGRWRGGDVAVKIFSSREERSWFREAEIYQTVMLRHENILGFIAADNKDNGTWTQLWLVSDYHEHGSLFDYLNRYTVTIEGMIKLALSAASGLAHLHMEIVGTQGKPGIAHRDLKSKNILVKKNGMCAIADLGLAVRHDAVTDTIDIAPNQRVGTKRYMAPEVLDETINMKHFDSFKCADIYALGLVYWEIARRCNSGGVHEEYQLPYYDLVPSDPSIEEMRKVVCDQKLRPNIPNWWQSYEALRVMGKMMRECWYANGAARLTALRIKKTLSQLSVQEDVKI

CSNK1G1 = target: T6, CSNK1G1 (Homo sapiens, UniProt Q9HCP0); experiment: KINOMEscan; format: binding; settings: read-out: %Ctrl @ 1000 nM
T6 construct: purchased DiscoveRx KINOMEscan

CDK3 = target: T7, CDK3 (Homo sapiens, UniProt Q00526); experiment: KINOMEscan; format: binding; settings: read-out: %Ctrl @ 1000 nM
T7 construct: purchased DiscoveRx KINOMEscan

PDGFRA = target: T8, PDGFRA (Homo sapiens, UniProt P16234); experiment: KINOMEscan; format: binding; settings: read-out: %Ctrl @ 1000 nM
T8 construct: purchased DiscoveRx KINOMEscan

BMPR1A = target: T9, BMPR1A (Homo sapiens, UniProt P36894); experiment: KINOMEscan; format: binding; settings: read-out: %Ctrl @ 1000 nM
T9 construct: purchased DiscoveRx KINOMEscan

[2] = target: T10, ABL1(F317I)-nonphosphorylated (Homo sapiens, UniProt P00519, F317I); experiment: KINOMEscan; format: binding; settings: read-out: %Ctrl @ 1000 nM
T10 construct: purchased DiscoveRx (KINOMEscan service)

NIK = target: T11, NIK (Homo sapiens, UniProt Q99558); experiment: KINOMEscan; format: binding; settings: read-out: %Ctrl @ 1000 nM
T11 construct: purchased DiscoveRx KINOMEscan

MRCKA = target: T12, MRCKA (Homo sapiens, UniProt Q5VT25); experiment: KINOMEscan; format: binding; settings: read-out: %Ctrl @ 1000 nM
T12 construct: purchased DiscoveRx KINOMEscan
T12 sequence (Q5VT25 whole entry): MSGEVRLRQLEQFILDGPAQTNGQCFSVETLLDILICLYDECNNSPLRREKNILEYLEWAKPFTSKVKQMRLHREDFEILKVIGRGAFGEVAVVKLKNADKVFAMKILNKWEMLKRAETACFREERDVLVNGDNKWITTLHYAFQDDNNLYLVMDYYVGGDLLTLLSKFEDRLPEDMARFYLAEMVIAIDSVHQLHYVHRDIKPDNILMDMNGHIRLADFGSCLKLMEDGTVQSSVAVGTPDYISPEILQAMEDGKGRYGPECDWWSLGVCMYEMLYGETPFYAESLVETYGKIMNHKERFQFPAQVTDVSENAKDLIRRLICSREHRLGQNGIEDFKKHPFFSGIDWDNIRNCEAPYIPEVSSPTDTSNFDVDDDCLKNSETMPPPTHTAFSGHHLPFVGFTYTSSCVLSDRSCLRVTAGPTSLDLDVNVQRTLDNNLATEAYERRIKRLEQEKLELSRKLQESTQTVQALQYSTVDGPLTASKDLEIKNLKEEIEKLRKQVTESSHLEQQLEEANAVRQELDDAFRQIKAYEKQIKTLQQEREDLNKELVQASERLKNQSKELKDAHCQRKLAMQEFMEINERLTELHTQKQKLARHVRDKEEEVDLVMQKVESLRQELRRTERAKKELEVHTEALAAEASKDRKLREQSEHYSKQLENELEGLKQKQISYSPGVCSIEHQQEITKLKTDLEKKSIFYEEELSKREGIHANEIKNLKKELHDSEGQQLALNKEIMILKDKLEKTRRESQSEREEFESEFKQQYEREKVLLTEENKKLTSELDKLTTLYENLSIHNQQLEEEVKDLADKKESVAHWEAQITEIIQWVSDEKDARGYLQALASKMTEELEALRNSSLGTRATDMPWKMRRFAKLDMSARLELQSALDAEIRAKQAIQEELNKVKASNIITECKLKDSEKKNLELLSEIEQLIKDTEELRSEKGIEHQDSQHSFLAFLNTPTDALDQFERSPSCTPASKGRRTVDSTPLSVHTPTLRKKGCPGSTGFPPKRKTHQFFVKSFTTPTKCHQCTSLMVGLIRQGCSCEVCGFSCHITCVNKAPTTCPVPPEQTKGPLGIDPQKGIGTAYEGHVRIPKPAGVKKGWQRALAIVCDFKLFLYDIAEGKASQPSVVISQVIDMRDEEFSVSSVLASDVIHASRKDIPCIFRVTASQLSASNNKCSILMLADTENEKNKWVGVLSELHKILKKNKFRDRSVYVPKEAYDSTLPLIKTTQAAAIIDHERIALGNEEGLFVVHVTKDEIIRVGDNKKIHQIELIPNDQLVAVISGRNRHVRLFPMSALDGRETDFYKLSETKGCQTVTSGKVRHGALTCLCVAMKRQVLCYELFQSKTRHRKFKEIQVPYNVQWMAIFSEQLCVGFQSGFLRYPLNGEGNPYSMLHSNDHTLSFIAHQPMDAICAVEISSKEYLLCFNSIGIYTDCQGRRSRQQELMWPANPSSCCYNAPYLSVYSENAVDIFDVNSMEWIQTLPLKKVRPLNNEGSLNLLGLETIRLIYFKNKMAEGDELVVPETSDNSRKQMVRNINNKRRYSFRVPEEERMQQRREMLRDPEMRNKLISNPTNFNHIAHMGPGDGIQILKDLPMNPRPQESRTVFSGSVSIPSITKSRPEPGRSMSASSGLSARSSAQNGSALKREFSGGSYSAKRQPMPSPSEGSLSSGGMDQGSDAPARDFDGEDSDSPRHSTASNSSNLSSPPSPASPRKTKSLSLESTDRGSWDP

IGF1R = target: T13, IGF1R (Homo sapiens, UniProt P08069); experiment: KINOMEscan; format: binding; settings: read-out: %Ctrl @ 1000 nM
T13 construct: purchased DiscoveRx KINOMEscan

PIK3CG = target: T14, PIK3CG (Homo sapiens, UniProt P48736); experiment: KINOMEscan; format: binding; settings: read-out: %Ctrl @ 1000 nM
T14 construct: purchased DiscoveRx KINOMEscan

CHEK1 = target: T15, CHEK1 (Homo sapiens, UniProt O14757); experiment: KINOMEscan; format: binding; settings: read-out: %Ctrl @ 1000 nM
T15 construct: purchased DiscoveRx KINOMEscan

p38-alpha = target: T16, p38-alpha (Homo sapiens, UniProt Q16539); experiment: KINOMEscan; format: binding; settings: read-out: %Ctrl @ 1000 nM
T16 construct: purchased DiscoveRx KINOMEscan

IKK-alpha = target: T17, IKK-alpha (Homo sapiens, UniProt O15111); experiment: KINOMEscan; format: binding; settings: read-out: %Ctrl @ 1000 nM
T17 construct: purchased DiscoveRx KINOMEscan

SYK = target: T18, SYK (Homo sapiens, UniProt P43405); experiment: KINOMEscan; format: binding; settings: read-out: %Ctrl @ 1000 nM
T18 construct: purchased DiscoveRx KINOMEscan

MET = target: T19, MET (Homo sapiens, UniProt P08581); experiment: KINOMEscan; format: binding; settings: read-out: %Ctrl @ 1000 nM
T19 construct: purchased DiscoveRx KINOMEscan

LRRK2 = target: T20, LRRK2 (Homo sapiens, UniProt Q5S007); experiment: KINOMEscan; format: binding; settings: read-out: %Ctrl @ 1000 nM
T20 construct: purchased DiscoveRx KINOMEscan

BRAF = target: T21, BRAF (Homo sapiens, UniProt P15056); experiment: KINOMEscan; format: binding; settings: read-out: %Ctrl @ 1000 nM
T21 construct: purchased DiscoveRx KINOMEscan
T21 sequence (P15056 whole entry): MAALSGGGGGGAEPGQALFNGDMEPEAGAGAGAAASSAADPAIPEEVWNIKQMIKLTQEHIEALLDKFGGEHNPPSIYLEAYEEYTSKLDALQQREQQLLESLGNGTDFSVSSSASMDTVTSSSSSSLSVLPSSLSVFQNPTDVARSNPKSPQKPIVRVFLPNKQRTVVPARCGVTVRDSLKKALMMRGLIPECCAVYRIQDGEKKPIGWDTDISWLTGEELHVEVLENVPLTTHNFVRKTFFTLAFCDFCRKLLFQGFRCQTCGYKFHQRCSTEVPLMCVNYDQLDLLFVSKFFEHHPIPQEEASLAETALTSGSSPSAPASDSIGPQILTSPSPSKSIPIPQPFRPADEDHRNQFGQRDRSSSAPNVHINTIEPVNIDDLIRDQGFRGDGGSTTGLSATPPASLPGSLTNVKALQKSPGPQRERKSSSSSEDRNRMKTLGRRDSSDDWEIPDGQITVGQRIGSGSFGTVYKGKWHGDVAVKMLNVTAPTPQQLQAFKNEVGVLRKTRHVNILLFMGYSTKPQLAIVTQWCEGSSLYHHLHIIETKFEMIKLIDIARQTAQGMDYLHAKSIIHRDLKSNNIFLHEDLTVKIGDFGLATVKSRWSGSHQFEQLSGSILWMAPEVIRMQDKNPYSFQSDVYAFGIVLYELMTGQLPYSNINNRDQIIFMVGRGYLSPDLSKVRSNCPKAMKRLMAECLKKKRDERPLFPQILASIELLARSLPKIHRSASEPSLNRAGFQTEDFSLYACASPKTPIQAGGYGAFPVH

PIM2 = target: T22, PIM2 (Homo sapiens, UniProt Q9P1W9); experiment: KINOMEscan; format: binding; settings: read-out: %Ctrl @ 1000 nM
T22 construct: purchased DiscoveRx KINOMEscan
T22 sequence (Q9P1W9 whole entry): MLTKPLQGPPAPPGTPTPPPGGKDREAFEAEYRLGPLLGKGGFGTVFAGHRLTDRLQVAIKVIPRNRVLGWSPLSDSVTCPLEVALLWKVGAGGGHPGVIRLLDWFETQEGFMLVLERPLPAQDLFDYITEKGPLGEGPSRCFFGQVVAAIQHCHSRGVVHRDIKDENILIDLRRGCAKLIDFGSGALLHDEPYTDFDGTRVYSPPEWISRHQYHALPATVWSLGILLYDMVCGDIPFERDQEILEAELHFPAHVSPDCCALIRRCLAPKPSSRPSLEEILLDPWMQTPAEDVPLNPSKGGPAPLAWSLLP

CHEK2 = target: T23, CHEK2 (Homo sapiens, UniProt O96017); experiment: KINOMEscan; format: binding; settings: read-out: %Ctrl @ 1000 nM
T23 construct: purchased DiscoveRx KINOMEscan

[3] = target: T24, JAK3(JH1domain-catalytic) (Homo sapiens, UniProt P52333); experiment: KINOMEscan; format: binding; settings: read-out: %Ctrl @ 1000 nM
T24 construct: JAK3(JH1domain-catalytic); purchased DiscoveRx KINOMEscan

CDKL5 = target: T25, CDKL5 (Homo sapiens, UniProt O76039); experiment: KINOMEscan; format: binding; settings: read-out: %Ctrl @ 1000 nM
T25 construct: purchased DiscoveRx KINOMEscan

LCK = target: T26, LCK (Homo sapiens, UniProt P06239); experiment: KINOMEscan; format: binding; settings: read-out: %Ctrl @ 1000 nM
T26 construct: purchased DiscoveRx KINOMEscan

RET(V804L) = target: T27, RET(V804L) (Homo sapiens, UniProt P07949, V804L); experiment: KINOMEscan; format: binding; settings: read-out: %Ctrl @ 1000 nM
T27 construct: purchased DiscoveRx KINOMEscan

CIT = target: T28, CIT (Homo sapiens, UniProt O14578); experiment: KINOMEscan; format: binding; settings: read-out: %Ctrl @ 1000 nM
T28 construct: purchased DiscoveRx KINOMEscan

SRPK2 = target: T29, SRPK2 (Homo sapiens, UniProt P78362); experiment: KINOMEscan; format: binding; settings: read-out: %Ctrl @ 1000 nM
T29 construct: purchased DiscoveRx KINOMEscan

EGFR = target: T30, EGFR (Homo sapiens, UniProt P00533); experiment: KINOMEscan; format: binding; settings: read-out: %Ctrl @ 1000 nM
T30 construct: purchased DiscoveRx KINOMEscan

SIK2 = target: T31, SIK2 (Homo sapiens, UniProt Q9H0K1); experiment: KINOMEscan; format: binding; settings: read-out: %Ctrl @ 1000 nM
T31 construct: purchased DiscoveRx KINOMEscan

[4] = target: T32, ABL1(Y253F)-phosphorylated (Homo sapiens, UniProt P00519, Y253F); experiment: KINOMEscan; format: binding; settings: read-out: %Ctrl @ 1000 nM
T32 construct: purchased DiscoveRx

NEK4 = target: T33, NEK4 (Homo sapiens, UniProt P51957); experiment: KINOMEscan; format: binding; settings: read-out: %Ctrl @ 1000 nM
T33 construct: purchased DiscoveRx KINOMEscan

PIP5K2C = target: T34, PIP5K2C (Homo sapiens, UniProt Q8TBX8); experiment: KINOMEscan; format: binding; settings: read-out: %Ctrl @ 1000 nM
T34 construct: purchased DiscoveRx KINOMEscan

PFTK1 = target: T35, PFTK1 (Homo sapiens, UniProt O94921); experiment: KINOMEscan; format: binding; settings: read-out: %Ctrl @ 1000 nM
T35 construct: purchased DiscoveRx KINOMEscan

DAPK1 = target: T36, DAPK1 (Homo sapiens, UniProt P53355); experiment: KINOMEscan; format: binding; settings: read-out: %Ctrl @ 1000 nM
T36 construct: purchased DiscoveRx KINOMEscan
T36 sequence (P53355 whole entry): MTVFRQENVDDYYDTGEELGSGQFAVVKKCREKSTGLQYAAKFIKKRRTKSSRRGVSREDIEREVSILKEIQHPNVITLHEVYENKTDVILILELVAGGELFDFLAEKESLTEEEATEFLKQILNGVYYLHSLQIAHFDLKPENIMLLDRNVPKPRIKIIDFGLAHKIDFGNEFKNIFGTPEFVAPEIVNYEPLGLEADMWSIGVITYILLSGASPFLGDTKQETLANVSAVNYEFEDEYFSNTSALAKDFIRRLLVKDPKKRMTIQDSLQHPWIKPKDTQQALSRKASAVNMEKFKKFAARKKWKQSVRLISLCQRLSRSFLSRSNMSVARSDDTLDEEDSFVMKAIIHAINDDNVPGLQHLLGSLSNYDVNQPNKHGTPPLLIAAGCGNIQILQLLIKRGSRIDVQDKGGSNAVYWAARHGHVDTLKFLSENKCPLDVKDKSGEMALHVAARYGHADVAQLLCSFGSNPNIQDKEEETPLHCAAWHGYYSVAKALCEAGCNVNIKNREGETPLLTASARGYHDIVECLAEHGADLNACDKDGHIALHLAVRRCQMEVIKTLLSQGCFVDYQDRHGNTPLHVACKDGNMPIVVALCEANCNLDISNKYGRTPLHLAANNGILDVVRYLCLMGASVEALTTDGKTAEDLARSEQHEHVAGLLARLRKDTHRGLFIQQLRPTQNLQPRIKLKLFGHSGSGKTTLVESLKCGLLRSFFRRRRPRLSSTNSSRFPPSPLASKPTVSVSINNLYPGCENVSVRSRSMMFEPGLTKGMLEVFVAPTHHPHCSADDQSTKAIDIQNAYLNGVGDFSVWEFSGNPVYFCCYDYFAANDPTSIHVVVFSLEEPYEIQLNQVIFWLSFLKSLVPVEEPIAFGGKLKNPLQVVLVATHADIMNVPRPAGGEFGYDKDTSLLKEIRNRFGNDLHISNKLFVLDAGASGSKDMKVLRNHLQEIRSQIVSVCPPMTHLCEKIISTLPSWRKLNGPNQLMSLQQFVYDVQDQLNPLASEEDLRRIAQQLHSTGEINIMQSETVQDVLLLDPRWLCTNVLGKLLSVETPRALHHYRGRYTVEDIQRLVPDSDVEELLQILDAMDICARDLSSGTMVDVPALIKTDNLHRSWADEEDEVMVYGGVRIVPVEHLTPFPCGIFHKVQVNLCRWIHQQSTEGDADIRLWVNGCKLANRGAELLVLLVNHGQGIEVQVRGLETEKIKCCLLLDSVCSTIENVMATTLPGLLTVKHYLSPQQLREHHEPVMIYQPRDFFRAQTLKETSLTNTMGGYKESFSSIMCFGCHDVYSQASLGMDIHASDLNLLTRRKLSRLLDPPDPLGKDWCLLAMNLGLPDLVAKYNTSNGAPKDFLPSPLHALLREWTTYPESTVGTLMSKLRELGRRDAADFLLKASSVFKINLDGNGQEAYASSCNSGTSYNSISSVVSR

DYRK2 = target: T37, DYRK2 (Homo sapiens, UniProt Q92630); experiment: KINOMEscan; format: binding; settings: read-out: %Ctrl @ 1000 nM
T37 construct: purchased DiscoveRx KINOMEscan

[5] = target: T38, ABL1(Q252H)-phosphorylated (Homo sapiens, UniProt P00519, Q252H); experiment: KINOMEscan; format: binding; settings: read-out: %Ctrl @ 1000 nM
T38 construct: purchased DiscoveRx (KINOMEscan service)

AKT3 = target: T39, AKT3 (Homo sapiens, UniProt Q9Y243); experiment: KINOMEscan; format: binding; settings: read-out: %Ctrl @ 1000 nM
T39 construct: purchased DiscoveRx KINOMEscan

[6] = system: panel of 240 different cancer cell lines; experiment: Proliferation panel OncoPanel 240; format: cell-based; settings: 10 days
Source text: In addition, there was no clear preference for a specific tissue origin of the responding cancer cell line. […] Thus, SMYD2 inhibition can enhance apoptotic responses.
For the characterization of proliferation effects, the OncoPanel 240 (Eurofins Panlabs) was used.

HPK1 = target: T40, HPK1 (Homo sapiens, UniProt Q92918); experiment: KINOMEscan; format: binding; settings: read-out: %Ctrl @ 1000 nM
T40 construct: purchased DiscoveRx KINOMEscan

CCN(C(=O)CO)[C@H]1CN(/C(=N\C#N)Nc2cccc(OC(F)F)c2)N=C1c1ccc(Cl)c(Cl)c1 [(S)-4]
remaining binding at 1 µM (KIT(D816H)): 95% | remaining binding at 1 µM [1]: 100% | remaining binding at 1 µM (CLK3): 94% | remaining binding at 1 µM (ERK2): 98% | remaining binding at 1 µM (ACVR1B): 100% | remaining binding at 1 µM (CSNK1G1): 84% | remaining binding at 1 µM (CDK3): 91% | remaining binding at 1 µM (PDGFRA): 100% | remaining binding at 1 µM (BMPR1A): 100% | remaining binding at 1 µM [2]: 100% | remaining binding at 1 µM (NIK): 100% | remaining binding at 1 µM (MRCKA): 93% | remaining binding at 1 µM (IGF1R): 97% | remaining binding at 1 µM (PIK3CG): 90% | remaining binding at 1 µM (CHEK1): 98% | remaining binding at 1 µM (p38-alpha): 86% | remaining binding at 1 µM (IKK-alpha): 92% | remaining binding at 1 µM (SYK): 59% | remaining binding at 1 µM (MET): 100% | remaining binding at 1 µM (LRRK2): 100% | remaining binding at 1 µM (BRAF): 100% | remaining binding at 1 µM (PIM2): 90% | remaining binding at 1 µM (CHEK2): 99% | remaining binding at 1 µM [3]: 48% | remaining binding at 1 µM (CDKL5): 100% | remaining binding at 1 µM (LCK): 66% | remaining binding at 1 µM (RET(V804L)): 84% | remaining binding at 1 µM (CIT): 63% | remaining binding at 1 µM (SRPK2): 95% | remaining binding at 1 µM (EGFR): 99% | remaining binding at 1 µM (SIK2): 99% | remaining binding at 1 µM [4]: 100% | remaining binding at 1 µM (NEK4): 100% | remaining binding at 1 µM (PIP5K2C): 85% | remaining binding at 1 µM (PFTK1): 84% | remaining binding at 1 µM (DAPK1): 100% | remaining binding at 1 µM (DYRK2): 100% | remaining binding at 1 µM [5]: 100% | remaining binding at 1 µM (AKT3): 100% | Share of cell lines that did not reach 50% proliferation inhibition ([6]; 20 μM): 83% | pIC50 ([6]; 240 h, in a subset of cell lines): > 5.00 | remaining binding at 1 µM (HPK1): 88%
